Data as given in patent publication US9211310B2, “Use of a Chinese medicine composition in preparing medicaments for treating secondary prevention of myocardial infarction” (TASLY PHARMACEUTICAL GROUP CO., LTD, priority 2010, dated 2015).

Test system: patients after acute myocardial infarction
Assay: TCM symptom score, total and single (chest pain, chest tightness, short breath, fatigue, palpitation, spontaneous perspiration, pale complexion), same clinical trial
Type: in vivo, human
Design: total score of TCM symptom, Mean / total score of TCM symptom, Min / total score of TCM symptom, Max / total score of TCM symptom, Md / change of total score of TCM symptom, Mean / change of total score of TCM symptom, Max / change of total score of TCM symptom, Md: scale not given here
Conditions: PP
Excerpt: 3508 patients who were in accordance with the diagnostic standards of AMI for 28 days to 2 years and differentiated as Qi deficiency and blood stagnation syndrome by TCM were studied. 0.5 g Chinese medicine composition prepared by the method of EXAMPLE 1 (Coded as QSYQ) was administrated half an hour after meal, 3 times per day.
They included the overall survival time, angina pectoris score, TCM symptom score and life quality score, where angina pectoris score, TCM symptom score and life quality score were evaluated at randomization, in 1st, 3rd, 6th, 9th, 12th month after treatment and 18th month after follow-up.
The analysis method referred to the angina pectoris score.

CC(=O)Oc1ccccc1C(=O)O [Control group, aspirine]
pale complexion score 3, percent of patients (Baseline): (3.88%) | short breath score 0, % of patients (Baseline): (14.48%) | short breath score 0, number of patients (Baseline): 213 | short breath score 3, % of patients (Baseline): (51.12%) | short breath score 3, number of patients (Baseline): 752 | short breath score 6, % of patients (Baseline): (32.56%) | short breath score 6, number of patients (Baseline): 479 | short breath score 9, % of patients (Baseline): (1.84%) | short breath score 9, number of patients (Baseline): 27 | distribution of total score of TCM symptom: Medium, number of patients (Follow-up): 212 | distribution of total score of TCM symptom: Medium, percentage of patients (Follow-up): (15.23%) | distribution of total score of TCM symptom: Mild, number of patients (Follow-up): 1177 | distribution of total score of TCM symptom: Mild, percentage of patients (Follow-up): (84.55%) | distribution of total score of TCM symptom: Severe, number of patients (Follow-up): 3 | distribution of total score of TCM symptom: Severe, percentage of patients (Follow-up): (0.22%) | fatigue score 0, % of patients (Follow-up): (42.80%) | fatigue score 0, number of patients (Follow-up): 597 | fatigue score 2, % of patients (Follow-up): (52.97%) | fatigue score 2, number of patients (Follow-up): 739 | fatigue score 4, % of patients (Follow-up): (4.01%) | fatigue score 4, number of patients (Follow-up): 56 | fatigue score 6, % of patients (Follow-up): (0.22%) | fatigue score 6, number of patients (Follow-up): 3 | pale complexion score 0, number of patients (Follow-up): 862 | pale complexion score 0, percent of patients (Follow-up): (61.79%) | pale complexion score 1, number of patients (Follow-up): 452 | pale complexion score 1, percent of patients (Follow-up): (32.40%) | pale complexion score 2, number of patients (Follow-up): 75 | pale complexion score 2, percent of patients (Follow-up): (5.38%) | pale complexion score 3, number of patients (Follow-up): 6 | pale complexion score 3, percent of patients (Follow-up): (0.43%) | palpitation score 0, number of patients (Follow-up): 613 | palpitation score 0, percent of patients (Follow-up): (43.94%) | palpitation score 2, number of patients (Follow-up): 683 | palpitation score 2, percent of patients (Follow-up): (48.96%) | palpitation score 4, number of patients (Follow-up): 94 | palpitation score 4, percent of patients (Follow-up): (6.74%) | palpitation score 6, number of patients (Follow-up): 5 | palpitation score 6, percent of patients (Follow-up): (0.36%) | short breath score 0, % of patients (Follow-up): (35.34%) | short breath score 0, number of patients (Follow-up): 493 | short breath score 2, % of patients (Follow-up): (0.07%) | short breath score 2, number of patients (Follow-up): 1 | short breath score 3, % of patients (Follow-up): (54.70%) | short breath score 3, number of patients (Follow-up): 763 | short breath score 6, % of patients (Follow-up): (9.68%) | short breath score 6, number of patients (Follow-up): 135 | short breath score 9, % of patients (Follow-up): (0.22%) | short breath score 9, number of patients (Follow-up): 3 | spontaneous perspiration score 0, number of patients (Follow-up): 750 | spontaneous perspiration score 0, percent of patients (Follow-up): (53.80%) | spontaneous perspiration score 1, number of patients (Follow-up): 578 | spontaneous perspiration score 1, percent of patients (Follow-up): (41.46%) | spontaneous perspiration score 2, number of patients (Follow-up): 62 | spontaneous perspiration score 2, percent of patients (Follow-up): (4.45%) | spontaneous perspiration score 3, number of patients (Follow-up): 4 | spontaneous perspiration score 3, percent of patients (Follow-up): (0.29%) | total score of TCM symptom, Max (Follow-up): 32.00 | total score of TCM symptom, Md (Follow-up): 7.00 | total score of TCM symptom, Mean (Follow-up): 7.73 | total score of TCM symptom, Min (Follow-up): 0.00 | change of fatigue 0, % of patients (Follow-up-baseline): (42.99%) | change of fatigue 0, number of patients (Follow-up-baseline): 598 | change of fatigue 2, % of patients (Follow-up-baseline): (37.60%) | change of fatigue 2, number of patients (Follow-up-baseline): 523 | change of fatigue 4, % of patients (Follow-up-baseline): (11.00%) | change of fatigue 4, number of patients (Follow-up-baseline): 153 | change of fatigue 6, % of patients (Follow-up-baseline): (2.01%) | change of fatigue 6, number of patients (Follow-up-baseline): 28 | change of fatigue −2, % of patients (Follow-up-baseline): (6.18%) | change of fatigue −2, number of patients (Follow-up-baseline): 86 | change of fatigue −4, % of patients (Follow-up-baseline): (0.22%) | change of fatigue −4, number of patients (Follow-up-baseline): 3 | change of pale complexion 0, number of patients (Follow-up-baseline): 932 | change of pale complexion 0, percent of patients (Follow-up-baseline): (67.29%) | change of pale complexion 1, number of patients (Follow-up-baseline): 414 | change of pale complexion 1, percent of patients (Follow-up-baseline): (29.89%) | change of pale complexion −1, number of patients (Follow-up-baseline): 39 | change of pale complexion −1, percent of patients (Follow-up-baseline): (2.82%) | change of palpitation 0, number of patients (Follow-up-baseline): 677 | change of palpitation 0, percent of patients (Follow-up-baseline): (48.71%) | change of palpitation 1, number of patients (Follow-up-baseline): 516 | change of palpitation 1, percent of patients (Follow-up-baseline): (37.12%) | change of palpitation 2, number of patients (Follow-up-baseline): 93 | change of palpitation 2, percent of patients (Follow-up-baseline): (6.69%) | change of palpitation 3, number of patients (Follow-up-baseline): 14 | change of palpitation 3, percent of patients (Follow-up-baseline): (1.01%) | change of palpitation −1, number of patients (Follow-up-baseline): 86 | change of palpitation −1, percent of patients (Follow-up-baseline): (6.19%) | change of palpitation −2, number of patients (Follow-up-baseline): 3 | change of palpitation −2, percent of patients (Follow-up-baseline): (0.22%) | change of palpitation −3, number of patients (Follow-up-baseline): 1 | change of palpitation −3, percent of patients (Follow-up-baseline): (0.07%) | change of short breath 0, % of patients (Follow-up-baseline): (52.12%) | change of short breath 0, number of patients (Follow-up-baseline): 725 | change of short breath 2, % of patients (Follow-up-baseline): (36.45%) | change of short breath 2, number of patients (Follow-up-baseline): 507 | change of short breath 4, % of patients (Follow-up-baseline): (5.46%) | change of short breath 4, number of patients (Follow-up-baseline): 76 | change of short breath 6, % of patients (Follow-up-baseline): (0.72%) | change of short breath 6, number of patients (Follow-up-baseline): 10 | change of short breath −2, % of patients (Follow-up-baseline): (5.10%) | change of short breath −2, number of patients (Follow-up-baseline): 71 | change of short breath −4, % of patients (Follow-up-baseline): (0.00%) | change of short breath −4, number of patients (Follow-up-baseline): 0 | change of short breath −6, % of patients (Follow-up-baseline): (0.14%) | change of short breath −6, number of patients (Follow-up-baseline): 2 | change of spontaneous perspiration 0, number of patients (Follow-up-baseline): 644 | change of spontaneous perspiration 0, percent of patients (Follow-up-baseline): (46.33%) | change of spontaneous perspiration 1, number of patients (Follow-up-baseline): 451 | change of spontaneous perspiration 1, percent of patients (Follow-up-baseline): (32.45%) | change of spontaneous perspiration 2, number of patients (Follow-up-baseline): 138 | change of spontaneous perspiration 2, percent of patients (Follow-up-baseline): (9.93%) | change of spontaneous perspiration 3, number of patients (Follow-up-baseline): 31 | change of spontaneous perspiration 3, percent of patients (Follow-up-baseline): (2.23%) | change of spontaneous perspiration −1, percent of patients (Follow-up-baseline): (8.35%) | change of spontaneous perspiration −2, number of patients (Follow-up-baseline): 8 | change of spontaneous perspiration −2, percent of patients (Follow-up-baseline): (0.58%) | change of spontaneous perspiration −3, number of patients (Follow-up-baseline): 2 | change of spontaneous perspiration −3, percent of patients (Follow-up-baseline): (0.14%) | change of total score of TCM symptom, Max (Follow-up-baseline): 27.00 | change of total score of TCM symptom, Md (Follow-up-baseline): −5.00 | change of total score of TCM symptom, Mean (Follow-up-baseline): −6.16 | change of total score of TCM symptom, Min (Follow-up-baseline): −29.00
